Data from US20180050029A1, “SELECTIVE CONNEXIN HEMICHANNELS BLOCKERS FOR THE TREATMENT OF EPILEPSY” (PONTIFICIA UNIVERSIDAD CATÓLICA DE CHILE, priority 2015, published 2018).
Several values for one entry are separate records, joined by “and”; a condition that tells them apart may be missing. Identical values can stand only once. Entries after “also recorded” stand apart in the source; their conditions may differ.

Experiments:
[1] = system: PTZ-induced seizures in C57BL/6 mice; assay: PTZ-induced seizures and mortality, anticonvulsant pretreatment; conditions: for Animal Mortality: dead/total animals
C57B/6 mice = assay: Toxicity or lethality of molecule D4, supervision protocol; assay type: in vivo; conditions: 0.2, 2, 20, 200, 2000 mg/kg i.p.
Procedure: To evaluate the toxicity or lethality of the molecule D4, Two-month adult mice were injected intraperitoneally in increasing doses (0.2; 2; 20; 200; 2000 mg/kg mouse weight) and were left under observation for 72 hours. After the observation time, the behavioral and physiological aspects of the animals were evaluated based on the Protocol of Supervision according to the Bioethics and Biosafety guidelines of the Faculty of Biological Sciences of the Pontificia Universidad Catolica de Chile that rules in the laboratory. The variables considered included physiological data (weight loss), appearance (posture) and spontaneous behavior (attitude to stimulation). […] In addition, mortality was zero at all concentrations evaluated. The evaluation of mortality of the molecule D4 as an anticonvulsant drug administered in mice prior to the induction of epilepsy with PTZ was zero (Table 3).
Measurements are performed by trained personnel, who know the basal or usual behavior of the animals under study.

[2] = system: connexin hemichannels in brain cells; assay: Ethidium uptake in brain slices of mice pretreated with D4 before PTZ; assay type: in vivo; conditions: D4 2 mg/kg i.p. six and one hour before PTZ (70 mg/kg), 30 min post PTZ; microglia, astrocytes and neurons
Procedure: Immunofluorescence and visualization in confocal microscopy identified cell types.
The mean data from ethidium uptake was normalized to the control condition (see FIG. 5, dotted line) of each cell type. […] The results obtained were expressed as the mean±SEM. Samples were determined using the Student's t-test (*p<0.05).

glial hemichannels = assay: Application of PTZ to brain slices; assay type: cell-based; conditions: PTZ applied to brain slices
adult C57BL/6 mice = assay: PTZ dose response, epileptogenic episodes and mortality in mice; assay type: in vivo; conditions: for Mortality: dead/total animals
Procedure: As epileptogenic agent, we used PTZ (Pentylenetetrazole), a GABAA receptor inhibitor widely used in the study and development of anticonvulsant drugs.
To determine the effective dose, a dose response curve was performed based on the available literature. […]

[3] = system: connexin hemichannels in brain cells; assay: Ethidium uptake in brain slices of PTZ-treated mice (time course); assay type: in vivo; conditions: PTZ 70 mg/kg i.p.
Procedure: Adult male mice of 2 months were injected via i.p. with PTZ (70 mg/kg) or phosphate buffered saline (PBS) as a control. Mice were sacrificed after 10, 20 and 30 min post-treatment to extract the brains and generate coronal slices of 400 μm thick using a vibratome. The slices were stabilized for 1 h prior to dye uptake, immersed in ACSF (artificial cerebrospinal fluid), bubbled with 95% O2 and 5% CO2 and at room temperature. Brain slices were incubated with the ethidium bromide dye (Etd, 4 μM) for 10 minutes. Subsequently, the slices were washed and fixed for 1 h with paraformaldehyde (4%). The brain slices were incubated for 40 min with blocking solution (PBS, 0.2% gelatine, 1% triton). Subsequently, the samples were incubated overnight at 4° C. with the primary antibody against molecular markers of the different cell types: anti-mast cell “Transmembrane tyrosine kinase” receptor CD117 (CD117); Integrin αM anti-microglia (CD11b); anti-astrocytes “glial fibrillary acidic protein” (GFAP); anti-oligodendrocytes “proteolipid protein” (PLP) and anti-neuronal neuron-market (NeuN). After washing with PBS (phosphate buffered saline), they were incubated with the Cy2-conjugated secondary antibody for 2 hours at room temperature and avoiding light.
Finally, the brain slices were washed and mounted on Flouromount G mounting medium and observed directly by the laser-scanning confocal microscope (Nikon Eclipse Ti). Consecutive images were taken with 40× target at 1 μm intervals sequentially with two lasers (Argon, 488 nm and Helium/Neon, 543 nm). In FIG. 1, representative images of mast cells (1.A, C), microglia (1.E, F), astrocytes (1.1, K), oligodendrocytes (1.M, O) and neurons (1.Q, S) and Etd-uptake of PTZ-induced control mice and mice (1.B, D, 1.F, H, 1.J, L, 1.N, P, 1.R, T).
The mean data of ethidium uptake was normalized to the control condition (dotted line) of each cell type. […] The results obtained were expressed as the mean±SEM. Samples were determined using the Student's t-test (*p<0.05).

[4] = system: hemichannels and channels formed by connexins and pannexins; assay: Ethidium uptake in brain slices of PTZ-treated mice, slices treated with Cbx; assay type: cell-based; conditions: for PTZ-induced ethidium uptake: 20 min on slices, astrocytes, oligodendrocytes and neurons
Procedure: Adult male mice at 2 months were injected intraperitoneally with PTZ (70 mg/kg) or PBS as a control. After 30 min post injection of the treatment, the action of Cbx at two concentrations was evaluate, 10 μM to block pannexin hemichannels and 100 μM to block both connexin and pannexin-based channels. The mice were sacrificed to extract the brains and obtain coronal slices 400 μm thick. The slices, once stabilized, were treated with Cbx for 20 min and then incubated with the ethidium bromide dye (4 μM) for 10 minutes. Thereafter, the slices were fixed and the immunofluorescence staining process was continued as described above. The mean data of ethidium uptake was normalized to the control condition (dotted line) of each cell type. […] The results obtained were expressed as the mean±SEM. Samples were determined using the Student's t-test (*p<0.05).

[5] = PTZ (70 mg/kg) without molecule D4

In the case of `O=C(OC(C(=O)c1ccc(Cl)cc1)c1ccccc1)c1ccc2ccccc2n1` (centres unmarked) [Molecule D4, 2-(4-chlorophenyl)-2-oxo-1-phenylethyl quinoline-2-carboxylate], the “Animal Mortality” value ([1]; Molecule D4 (2 mg/kg) prior to PTZ (70 mg/kg)) is reported as “zero”, the Mortality (C57B/6 mice; 72 hours observation) is reported as “zero” and the observable side effects (C57B/6 mice; 72 hours observation, 2000 mg/kg) is reported as “no observed side effects; also recorded: no observable side effects”. The “supervision protocol score (weight loss, posture, spontaneous behavior)” value (C57B/6 mice; 72 hours, score 0-3 is normal) was “zero” and the “PTZ-induced hemichannel activity (ethidium uptake)” value [2] was “blocks the activity of hemichannels formed by PTZ-induced connexin in brain cells; also recorded: not positive to Etd; also recorded: blocks PTZ-induced hemichannel activity and basal activation”.

With `O=C1NC(=O)C(c2ccccc2)(c2ccccc2)N1` [phenytoin, Phenytoin] the “prevention of PTZ-induced seizures” value ([1]; phenytoin treatment, after 10 minutes of treatment) was “does not prevent PTZ-induced seizures”.

With `C1CCc2nnnn2CC1` [PTZ, Pentylenetetrazole] the “% Mortality” value [1, 5] was 20%, the “Animal Mortality” value [1, 5] was 3/15 and the “opening of glial hemichannels” value (glial hemichannels) was “induced the opening of glial hemichannels”. For the same compound, the “% Mortality” value (adult C57BL/6 mice; PTZ 65 mg/kg i.p. single dose) was 0%, the “Eliptogenic Episode” value (adult C57BL/6 mice; PTZ 65 mg/kg i.p. single dose) was “No” and the Mortality (adult C57BL/6 mice; PTZ 65 mg/kg i.p. single dose) was 0/3. For the same compound, the “% Mortality” value (adult C57BL/6 mice; PTZ 70 mg/kg i.p. single dose) was 20%, the “Eliptogenic Episode” value (adult C57BL/6 mice; PTZ 70 mg/kg i.p. single dose) was “induces convulsions and Yes” and the Mortality (adult C57BL/6 mice; PTZ 70 mg/kg i.p. single dose) was “without being lethal and 3/15”. For the same compound, the “% Mortality” value (adult C57BL/6 mice; PTZ 75 mg/kg i.p. single dose) was 50%, the “Eliptogenic Episode” value (adult C57BL/6 mice; PTZ 75 mg/kg i.p. single dose) was “Yes” and the Mortality (adult C57BL/6 mice; PTZ 75 mg/kg i.p. single dose) was 2/4. For the same compound, the “% Mortality” value (adult C57BL/6 mice; PTZ 80 mg/kg i.p. single dose) was 100%, the “Eliptogenic Episode” value (adult C57BL/6 mice; PTZ 80 mg/kg i.p. single dose) was “Yes” and the Mortality (adult C57BL/6 mice; PTZ 80 mg/kg i.p. single dose) was 3/3. For the same compound, the “% Mortality” value (adult C57BL/6 mice; PTZ 90 mg/kg i.p. single dose) was 100%, the “Eliptogenic Episode” value (adult C57BL/6 mice; PTZ 90 mg/kg i.p. single dose) was “Yes” and the Mortality (adult C57BL/6 mice; PTZ 90 mg/kg i.p. single dose) was 3/3. The “time to develop seizures post-administration” value (adult C57BL/6 mice; PTZ-treated mice) was no more than 10 min, the “behaviour in the hours after the seizures” value (adult C57BL/6 mice; PTZ-treated mice, period of several hours) was “very low motor activity and sporadic contractions” and the epileptogenic episodes (adult C57BL/6 mice; higher doses (>100 mg/kg)) was “induce epileptogenic episodes”. The mortality rate (adult C57BL/6 mice; higher doses (>100 mg/kg), at 5 min after administration) was 100%, the epileptogenic episodes (adult C57BL/6 mice; lower dose (<65 mg/kg)) was “does not induce evident epileptogenic episodes” and the “hemichannel activity (ethidium uptake) in brain slices” value ([3]; versus control mice) was “induces activity of connexin hemichannels in brain cells; also recorded: positive for high activity of hemichannels; also recorded: positive for Etd fluorescence”. The “hemichannel activity (ethidium uptake normalized to control)” value ([3]; astrocytes and oligodendrocytes, first (FIG. 2.A)) was “increases the activity of the hemichannels” and the “hemichannel activity (ethidium uptake normalized to control)” value ([3]; mast cells, microglia and neurons, after 30 min (FIG. 2.B and C)) was “increases the activity of the hemichannels”.

For `CC1(C)[C@@H](OC(=O)CCC(=O)O)CC[C@]2(C)[C@H]3C(=O)C=C4[C@@H]5C[C@@](C)(C(=O)O)CC[C@]5(C)CC[C@@]4(C)[C@]3(C)CC[C@@H]12` [Carbenoxolone, carbenoxolone], the PTZ-induced ethidium uptake ([4]; Cbx 10 μM) was “block the uptake of ethidium”, the PTZ-induced ethidium uptake ([4]; Cbx 100 μM) was “block the uptake of ethidium” and the “PTZ-induced hemichannel and channel activity” value ([4]; FIG. 3 legend, macroglia and neurons) was “blocks hemispheric activity formed by PTZ-induced connexins and channels”.
